Results as given in US20080096228A1, “Compositions And Methods Relating To Mammalian Internal Ribosome Entry Sites” (THE REGENTS OF THE UNIVERSITY OF CALIFORNIA, priority 2006, published 2008).
Several values for one entry are separate records, joined by “and”; a condition that tells them apart may be missing. Identical values can stand only once. Counter-ions that a name gives are not always drawn.

B1: LEF1 IRES: human LEF1 5'UTR (1.178 kb) internal ribosome entry site, SEQ ID NO:1, in dicistronic vector pRSTF-LEF(1.2) (nucleic acid, listed as Homo sapiens)
DNA: TCAGCGCCGGCGAGGCGCGGGAGGAGGAGAAGCAGTGGGGAGGCGCAGCCGCTCACCTGCGGGGCAGGGCGCGGAGGAGGGACCCGGGCTGCGCGCTCTCGGGCCGAGGAACCAGGACGCGCCCGGAGCCTCGCACGCGGCCAAGCTCGGGGCGTCCCCTCCCCTCGGCCGGGCGAACTCAAGGGGCGCAGCTCTTTGCTTTGACAGAGCTGGCCGGCGGAGGCGTGCAGAGCGGCGAGCCGGCGAGCCAGGCTGAGAAACTCGAGCCGGGAACAAAGAGGGGTCGGACTGAGTGTGTGTGTCGGCTCGAGCTCCGGGCAGAGGCATTTGGGCCCGAGGCCCCCGCTGTGACTCCCCGAGACTCCGCAGTGCCCTCCACTGCGGAGTCCCCGCGCTTGCCGGCAAAAACTTTATTCTTGGCAAACTTCTCTTTCTCTTCCCCTCCTCCTCGGCCCCCATCTTCTGCTCCTCCTCCTTCTCTAGCAGATTAAATGAGCCTCGAGAAGAAAAACCGAAGCGAAAGGGAAGAAAATAAGAAGATCTAAAACGGACATCTCCAGCGTGGGTGGCTCCTTTTTCTTTTTCTTTTTTTCCCACCCTTCAGGAAGTGGACGTTTCGTTATCTTCTGATCCTTGCACCTTCTTTTGGGGCAAACGGGGCCCTTCTGCCCAGATCCCCTCTCTTTTCTCGGAAAACAAACTACTAAGTCGGCATCCGGGGTAACTACAGTGGAGAGGGTTTCCGCGGAGACGCGCCGCCGGACCCTCCTCTGCACTTTGGGGAGGCGTGCTCCCTCCAGAACCGGCGTTCTCCGCGCGCAAATCCCGGCGACGCGGGGTCGCGGGGTGGCCGCCGGGGCAGCCTCGTCTAGCGCGCGCCGCGCAGACGCCCCCGGAGTCGCCAGCTACCGCAGCCCTCGCCGCCCAGTGCCCTTCGGCCTCGGGGGCGGGCGCCTGCGTCGGTCTCCGCGAAGCGGGAAAGCGCGGCGGCCGCCGGGATTCGGGCGCCGCGGCAGCTGCTCCGGCTGCCGGCCGGCGGCCCCGCGCTCGCCCGCCCCGCTTCCGCCCGCTGTCCTGCTGCACGAACCCTTCCAACTCTCCTTTCCTCCCCCACCCTTGAGTTACCCCTCTGTCTTTCCTGCTGTTGCGCGGGTGCTCCCACAGCGGAGCGGAGATTACAGAGCCGCCGGGATGCCCCAACTCTCCGGAGGAGGTGGCGGCGGCGGGGGGGACCCGGAACTCTGCGCCACGGACGAGATGA
modifications: (298)..(1095) IRES Sequence; (298)..(656) IRES Module 1; (656)..(1095) IRES Module 2

Legend:
[1] = system: LEF-1 protein expression in primary CML cells; experiment: LEF-1 protein expression in primary CML cells, Western blot; type: cell-based, human; settings: rapamycin 10 ng/mL, 24 hours
Procedure: PB mononuclear cells (MNCs) were obtained by centrifugation through Ficoll-Hypaque, washed in PBS, and cryopreserved. To expand CML cells in vitro, cells were thawed and grown in media supplemented with 10% FBS and a growth factor cocktail consisting of 20 ng/ml granulocyte-macrophage colony stimulating factor, 20 ng/ml recombinant human interleukin 3, 20 ng/ml recombinant human stem cell factor, and 100 ng/ml granulocyte colony-stimulating factor. Following this, cells were incubated in liquid culture for 72-96 hrs, at 37° C. in a humidified atmosphere with 5% CO2 in serum-free medium (SFM) (StemCell Technologies, Vancouver, BC, Canada) supplemented with growth factors (GF) at concentrations similar to that found in stroma-conditioned medium. All cytokines were from PeproTech, Rocky Hills, N.J., except for GM-CSF (sargramostim, Immunex, Seattle, Wash.) and G-CSF (filgrastim, Amgen, Thousand Oaks, Calif.).

[2] = system: LEF-1 protein expression in K562 cells; experiment: LEF-1 protein expression in K562 cells, Western blot; type: cell-based; settings: imatinib 2 uM, rapamycin 10 ng/mL or both, 24 hours
[3] = system: LEF1 mRNA; experiment: Northern blot of LEF1 mRNA in K562 cells; type: cell-based; settings: 2 μM imatinib, 24 hours; for decrease of LEF1 mRNA levels (3.6 kb and 3.0 kb mRNAs): rapamycin 10 ng/mL or both, not normalized
Procedure: Total RNA was isolated from K562 cells using TriZol reagent (Invitrogen) according to the manufacturer's instructions. […] Approximately 20 μg of total RNA from K562 cells was analyzed on a Northern blot for LEF1 expression, respectively. Northern blotting was carried out as described elsewhere and the LEF1 ORF (open reading frame) probe was generated as described elsewhere and radiolabeled with ^32P-dATP. The blot was stripped and rehybridized with a ^32P-dATP radioloabeled GAPDH loading control probe.
Panel B: Northern blot analysis of total RNA isolated from K562 cells treated with inhibitors as described above. The three LEF1 mRNAs are indicated by arrows. A radiolabeled LEF-1 ORF cDNA probe was used to detect LEF1 mRNAs in the top panel. The blot was stripped and reprobed with GAPDH.

[4] = system: LEF1 IRES; experiment: Dicistronic DNA transfection dual luciferase assay, LEF1 IRES, Ba/F3-Bcr-Abl-WT cells; type: cell-based, murine
Procedure: (§1) For transfection of the dicistronic plasmids into Ba/F3 cells, approximately 10×10^6 cells were seeded in […] and 10 μg of the reporter plasmid was transfected via a BTX 600 electroporator. […] Cell lysates were prepared for dual luciferase assays 8 hours post-transfection. […] Cell lysates were prepared for dual luciferase assays 24 hours post-transfection. Transfections were performed in duplicate and each experiment was carried out at least 3 times.
(§2) Cell lysates were assayed for luciferase activities using the Dual Luciferase Reporter Assay System (Promega) according to the manufacturer's protocol. Assays were performed using a SIRIUS luminometer (Berthold Detection Systems). FLuc:RLuc ratios were calculated for each sample, and the average value is represented as fold elevation over background, which is the Firefly luciferase: Renilla luciferase ratio (FLuc:RLuc) measured from the vector in the absence of an insert. […]
(§3) The dicistronic vector depicted in FIG. 4A contains 2 cistrons separated by an intercistronic region that also contains a hairpin structure. […] A dicistronic construct that contains the full length 1.2 kb LEF1 5′UTR and IRES, the empty vector with no insert (pRSTF), and the viral IRES of the well characterized coxsackievirus B3 (CVB3) were analyzed for comparison. […]

[5] = system: CVB3 IRES; experiment: Dicistronic DNA transfection dual luciferase assay, CVB3 IRES, Ba/F3-Bcr-Abl-WT cells; type: cell-based, murine; settings: 10 ng/mL rapamycin, 6 hours
Procedure: as §1, §2, §3

[6] = system: cap-dependent translation (RLuc); experiment: Dicistronic DNA transfection, RLuc cap-dependent translation, Ba/F3-Bcr-Abl-WT cells; type: cell-based, murine; settings: inhibitors for 6 hours
Procedure: as §1
Cell lysates were assayed for luciferase activities using the Dual Luciferase Reporter Assay System (Promega) according to the manufacturer's protocol. Assays were performed using a SIRIUS luminometer (Berthold Detection Systems). FLuc:RLuc ratios were calculated for each sample, and the average value is represented as fold elevation over background, which is the Firefly luciferase: Renilla luciferase ratio (FLuc:RLuc) measured from the vector in the absence of an insert.
as §3

[7] = system: GAPDH mRNA; experiment: Northern blot of GAPDH mRNA (loading control) in K562 cells; type: cell-based; settings: 2 μM imatinib, 24 hours
[8] = system: LEF-1 IRES; experiment: Dicistronic DNA transfection dual luciferase assay, LEF-1 IRES, K562 cells; type: cell-based; settings: 2 μM imatinib, 24 hour treatment
[9] = system: cap-dependent translation (RLuc); experiment: Dicistronic DNA transfection, RLuc cap-dependent translation, K562 cells; type: cell-based; settings: 2 μM imatinib
[10] = system: cap-dependent translation (RLuc); experiment: Capped dicistronic RNA transfection, RLuc cap-dependent translation, K562 cells; type: cell-based; settings: 2 μM imatinib, 24 hours
Procedure: (§4) The capped dicistronic mRNAs were generated by in vitro transcription of the dicistronic (linearized with PMEI) plasmid using the T7-based Megascript in vitro transcription kit (Ambion) as per the manufacturer's protocol. The integrity of the transcripts was analyzed on a 1% agarose gel.
(§5) Approximately 6×10^5 cells (K562) were seeded in 6-well plates and 2 μg of in vitro synthesized dicistronic mRNA was transfected per well using the Transmessenger transfection kit (Qiagen). A ratio of 1:6 (1 μg of RNA: 6 μL of transmessenger reagent) was used according to the manufacturer's instructions. […] Cell lysates were then assayed for luciferase activities as described above. All transfections were performed in duplicate and carried out 3 times.
(§6) To determine whether Bcr-Abl regulation is compartmentalized and further examine whether it functions post-transcriptionally, an RNA transient transfection was carried out in K562 cells. […] In these experiments the inventors again utilized CVB3 as a control for regulation in subcellular compartments since it predominantly depends on cytoplasmic machinery for translation.

[11] = system: LEF-1 IRES; experiment: Capped dicistronic RNA transfection, LEF-1 IRES firefly luciferase, K562 cells; type: cell-based; settings: 2 μM imatinib, 24 hours, p<0.001
Procedure: as §4, §5, §6

[12] = system: CVB3 IRES; experiment: Capped dicistronic RNA transfection, CVB3 IRES firefly luciferase, K562 cells; type: cell-based; settings: 2 μM imatinib, 24 hours
Procedure: as §4, §5, §6

Molecule | LEF-1 protein levels [1] | LEF-1 protein levels [2] | decrease of LEF1 mRNA levels (3.6 kb and 3.0 kb mRNAs) [3] [fold] | decrease in LEF-1 IRES activity (FLuc:RLuc) ([4]; 10 ng/mL rapamycin, 6 hours) [%] | decrease in CVB3 IRES activity (FLuc:RLuc) [5] [%] | decrease in RLuc activity (cap-dependent translation), average [6] [fold] | decrease of LEF1 mRNA after normalizing with GAPDH mRNA levels [3] [fold] | reduction of GAPDH mRNA levels [7] [fold] | decrease in LEF-1 IRES activity [8] [fold] | decrease in LEF-1 IRES activity ([8]; listed as Imatinib) | reduction of RLuc translation, average [9] [fold] | inhibition of RLuc translation, average [10] [fold] | reduction of LEF-1 IRES activity in the cytoplasm [11] [%] | effect on CVB3 IRES activity [12] | elevation in the FLuc:RLuc ratio over empty vector ([4]; 8 hours post-transfection, no inhibitor) [fold]
CO[C@H]1C[C@@H]2CC[C@@H](C)[C@@](O)(O2)C(=O)C(=O)N2CCCC[C@H]2C(=O)O[C@H]([C@H](C)C[C@@H]2CC[C@@H](O)[C@H](OC)C2)CC(=O)[C@H](C)/C=C(\C)[C@@H](O)[C@@H](OC)C(=O)[C@H](C)C[C@H](C)/C=C/C=C/C=C/1C [rapamycin] | no effect | no effect | ~2 | 38 | 33 | 2 |  |  |  |  |  |  |  |  | 
Cc1ccc(NC(=O)c2ccc(CN3CCN(C)CC3)cc2)cc1Nc1nccc(-c2cccnc2)n1 [imatinib, imatinib mesylate] |  | significantly down-regulated | 3 |  |  |  | 2 | 1.4 | 2.3 | 3-4 fold and 3 fold | 2.6 | 3.4 | 45 | insensitive | 
B1 |  |  |  |  |  |  |  |  |  |  |  |  |  |  | 55
